Reference: patent publication US20060089375A1, “Pyrazolo[3,4-b] pyridine compounds, and their use as phosphodiesterase inhibitors” (priority 2002, published 2006)

Columns and labels:
[1] = Particle size analysis of micronised material by laser diffraction (Malvern Mastersizer); format: physicochemical
Excerpt: For pharmaceutical compositions suitable and/or adapted for inhaled administration, it is preferred that the compound or salt of formula (I) is in a particle-size-reduced form, and more preferably the size-reduced form is obtained or obtainable by micronisation. Micronisation usually involves subjecting the compound/salt to collisional and abrasional forces in a fast-flowing circular or spiral/vortex-shaped airstream often including a cyclone component. The preferable particle size (e.g. D50 value) of the size-reduced (e.g. micronised) compound or salt is about 0.5 to about 10 microns, e.g. about 1 to about 5 microns (e.g. as measured using laser diffraction). For example, it is preferable for the compound or salt of formula (I to have a particle size defined by: a D10 of about 0.3 to about 3 microns (e.g. about 1 micron), and/or a D50 of about 1 to about 5 microns (e.g. about 2-5 or about 2-3 microns), and/or a D90 of about 2 to about 20 microns or about 3 to about 10 microns (e.g. about 5-8 or about 5-6 microns); for example as measured using laser diffraction. The laser diffraction measurement can use a dry method (suspension of compound/salt in airflow crosses laser beam) or a wet method [suspension of compound/salt in liquid dispersing medium, such as isooctane or (e.g. if compound soluble in isooctane) 0.1% Tween 80 in water, crosses laser beam]. With laser diffraction, particle size is preferably calculated using the Fraunhofer calculation; and/or preferably a Malvern Mastersizer or Sympatec apparatus is used for measurement.
Particle size analysis of Example 518 micronised material from Procedure 2, using laser diffraction measurement with Malvern Mastersizer longbed version, dispersing medium 0.1% Tween 80 in water, stir rate 1500 rpm, 3 mins sonification prior to final dispersion and analysis, 300 RF Reverse Fourier) lens, Fraunhofer calculation with Malvern software: • material from collection vessel: D10=0.97 microns, D50=3.86 microns, D90=12.64 microns. • material from inside walls of cyclone: D10=0.95 microns, D50=3.42 microns, D90=9.42 microns.

[2] = molecular target: T1, PDE4B (human recombinant) (Homo sapiens, UniProt Q07343); experiment: Inhibition of PDE4B activity: radioactive SPA or IMAP Fluorescence Polarisation (FP) assay; format: biochemical; settings: PDE4B inhibitory activity, one reading or average of ca. 2-6 readings, read-out: PDE4B pIC50 (± about 0.5) (converted)
T1 construct: made in house
Excerpt: Human recombinant PDE4B, in particular the 2B splice variant thereof (HSPDE4B2B), is disclosed in WO 94/20079 and also M. M. McLaughlin et al., “A low Km, rolipram-sensitive, cAMP-specific phosphodiesterase from human brain: cloning and expression of cDNA, biochemical characterisation of recombinant protein, and tissue distribution of mRNA”, J. Biol. Chem., 1993, 268, 6470-6476. For example, in Example 1 of WO 94/20079, human recombinant PDE4B is described as being expressed in the PDE-deficient yeast Saccharomyces cerevisiae strain GL62, e.g. after induction by addition of 150 uM CuSO4, and 100,000×g supernatant fractions of yeast cell lysates are described for use in the harvesting of PDE4B enzyme.
The ability of compounds to inhibit catalytic activity at PDE4B or 4D (human recombinant), PDE3 (from bovine aorta), PDE5 (human recombinant) or PDE6 (from bovine retina) was determined by Scintillation Proximity Assay (SPA) in 96-well format. Test compounds (preferably as a solution in DMSO, e.g. 0.5 to 1 microlitre (ul) volume) were preincubated at ambient temperature (room temperature, e.g. 19-23° C.) in Wallac Isoplates (code 1450-514) with PDE enzyme in 50 mM Tris-HCl buffer pH 7.5, 8.3 mM MgCl2, 1.7 mM EGTA, 0.05% (w/v) bovine serum albumin for 10-30 minutes (usually 30 minutes). The enzyme concentration was adjusted so that no more than 20% hydrolysis of the substrate defined below occurred in control wells without compound, during the incubation. For the PDE3, PDE4B and PDE4D assays, [5′,8-^3H]Adenosine 3′,5′-cyclic phosphate (Amersham Pharmacia Biotech, code TRK.559; or Amersham Biosciences UK Ltd, Pollards Wood, Chalfont St Giles, Buckinghamshire HP8 4SP, UK) was added to give 0.05 uCi per well and ˜10 nM final concentration. For the PDE5 and PDE6 assays, [8-^3H]Guanosine 3′,5′-cyclic phosphate (Amersham Pharmacia Biotech, code TRK.392) was added to give 0.05 uCi per well and ˜36 nM final concentration. Plates, e.g. containing approx. 100 ul volume of assay mixture, were mixed on an orbital shaker for 5 minutes and incubated at ambient temperature for 1 hour. Phosphodiesterase SPA beads (Amersham Pharmacia Biotech, code RPNQ 0150) were added ([…] per well) to terminate the assay. Plates were sealed and shaken and allowed to stand at ambient temperature for 35 minutes to 1 hour (preferably 35 minutes) to allow the beads to settle. Bound radioactive product was measured using a WALLAC TRILUX 1450 Microbeta scintillation counter. For inhibition curves, 10 concentrations (1.5 nM-30 uM) of each compound were assayed. Curves were analysed using ActivityBase and XLfit (ID. Business Solutions Limited, 2 Ocean Court, Surrey Research Park, Guildford, Surrey GU2 7QB, United Kindgom) Results were expressed as pIC50 values.
The ability of compounds to inhibit catalytic activity at PDE4B (human recombinant) or PDE4D (human recombinant) was determined by IMAP Fluorescence Polarisation ([…]) assay (IMAP Explorer kit, available from Molecular Devices Corporation, Sunnydale, Calif., USA; Molecular Devices code: R^8062) in 384-well format. The IMAP FP assay is able to measure PDE activity in an homogenous, non-radioactive assay format. The FP assay uses the ability of immobilised trivalent metal cations, coated onto nanoparticles (tiny beads), to bind the phosphate group of Fl-AMP that is produced on the hydrolysis of fluorescein-labelled (Fl) cyclic adenosine mono-phosphate (Fl-cAMP) to the non-cyclic Fl-AMP form. […] Binding of Fl-AMP product to the beads (coated with the immobilised trivalent cations) slows the rotation of the bound Fl-AMP and leads to an increase in the fluorescence polarisation ratio of parallel to perpendicular light. Inhibition of the PDE reduces/inhibits this signal increase. […]

[3] = system: LPS-induced pulmonary neutrophilia and emetic episodes in the conscious ferret; experiment: In Vivo Assay 4: Therapeutic Index of PDE4 inhibitors in the conscious ferret (LPS neutrophilia and emesis)
Protocol: PDE4 inhibitors are prepared for oral (p.o.) administration by dissolving in a fixed volume (1 ml) of acetone and then adding cremophor to 20% of the final volume. Acetone is evaporated by directing a flow of nitrogen gas onto the solution. Once the acetone is removed, the solution is made up to final volume with distilled water. LPS is dissolved in phosphate buffered saline.
Male ferrets (Mustela Pulorius Furo, weighing 1-2 kg) are transported and allowed to acclimatise for not less than 7 days. The diet comprises SDS diet C pelleted food given ad lib with Whiskers™ cat food given 3 times per week. The animals are supplied with pasteurised animal grade drinking water changed daily.
PDE4 inhibitors are administered orally (p.o.), using a dose volume of 1 ml/kg. Ferrets are fasted overnight but allowed free access to water. The animals are orally dosed with vehicle or PDE 4 inhibitor using a 15 cm dosing needle that is passed down the back of the throat into the oesophagus. After dosing, the animals are returned to holding cages fitted with perspex doors to allow observation, and given free access to water. The animals are constantly observed and any emetic episodes (retching and vomiting) or behavioural changes are recorded. The animals are allowed access to food 60-90 minutes after p.o. dosing.
Thirty minutes after oral dosing with compound or vehicle control, the ferrets are placed into sealed perspex containers and exposed to an aerosol of LPS (30 μg/ml) for 10 minutes. Aerosols of LPS are generated by a nebuliser (DeVilbiss, USA) and this is directed into the perspex exposure chamber. Following a 10-minute exposure period, the animals are returned to the holding cages and allowed free access to water, and at a later stage, food. General observation of the animals continues for a period of at least 2.5 hours post oral dosing. All emetic episodes and behavioural changes are recorded.
Six hours after LPS exposure the animals are killed by overdose of sodium pentobarbitone administered intraperitoneally. […] From this, the total number of neutrophils in the BAL sample is determined. […]

[4] = micronised material Procedure 2, material from collection vessel
[5] = micronised material Procedure 2, material from inside walls of cyclone

T1 sequence (Q07343 1-564 isoform Q07343-2): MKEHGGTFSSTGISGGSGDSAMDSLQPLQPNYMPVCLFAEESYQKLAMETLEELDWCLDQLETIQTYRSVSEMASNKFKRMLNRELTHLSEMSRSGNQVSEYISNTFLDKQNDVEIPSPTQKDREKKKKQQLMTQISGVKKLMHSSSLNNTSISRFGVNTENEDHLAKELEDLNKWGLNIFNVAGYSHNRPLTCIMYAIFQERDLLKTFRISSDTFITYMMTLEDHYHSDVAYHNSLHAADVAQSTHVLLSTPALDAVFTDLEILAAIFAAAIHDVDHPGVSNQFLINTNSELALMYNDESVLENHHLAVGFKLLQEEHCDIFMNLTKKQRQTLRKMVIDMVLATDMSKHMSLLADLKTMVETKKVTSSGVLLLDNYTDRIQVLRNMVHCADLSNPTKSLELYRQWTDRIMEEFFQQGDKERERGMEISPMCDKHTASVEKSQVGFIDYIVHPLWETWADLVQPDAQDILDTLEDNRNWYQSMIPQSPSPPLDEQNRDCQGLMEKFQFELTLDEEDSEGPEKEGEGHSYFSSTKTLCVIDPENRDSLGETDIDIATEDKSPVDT

IC50 [2] [nM] | Compound | further results
0.1 to 6.31 | CCn1ncc2c(NC3CCOCC3)c(C(=O)NCc3ccc(C)c(C)c3)cnc21 [Example 518, N-[(3,4-dimethylphenyl)methyl]-1-ethyl-4-(tetrahydro-2H-pyran-4-ylamino)-1H-pyrazolo[3,4-b]pyridine-5-carboxamide] | particle size D10 [1, 4]: 0.97 microns; particle size D50 [1, 4]: 3.86 microns; particle size D90 [1, 4]: 12.64 microns; particle size D10 [1, 5]: 0.95 microns; particle size D50 [1, 5]: 3.42 microns; particle size D90 [1, 5]: 9.42 microns
0.1 to 6.31 | CCn1ncc2c(NC3CCC(=O)CC3)c(C(=O)NCc3cccc(Cl)c3Cl)cnc21 [Example 677, N-[(2,3-Dichlorophenyl)methyl]-1-ethyl-4-[(4-oxocyclohexyl)amino]-1H-pyrazolo[3,4-b]pyridine-5-carboxamide] | –
0.1 to 6.31 | CCn1ncc2c(NC3CCC(=O)CC3)c(C(=O)NCc3ccc(C)c(Cl)c3)cnc21 [Example 678, N-[(3-Chloro-4-methylphenyl)methyl]-1-ethyl-4-[(4-oxocyclohexyl)amino]-1H-pyrazolo[3,4-b]pyridine-5-carboxamide] | –
0.1 to 6.31 | CCn1ncc2c(NC3CCC(=O)CC3)c(C(=O)NCc3ccc(Cl)cc3C)cnc21 [Example 679, N-[(4-Chloro-2-methylphenyl)methyl]-1-ethyl-4-[(4-oxocyclohexyl)amino]-1H-pyrazolo[3,4-b]pyridine-5-carboxamide] | –
0.1 to 6.31 | CCn1ncc2c(NC3CCC(=NO)CC3)c(C(=O)NCc3ccc(C)cc3C)cnc21 (centres unmarked) [Example 680, N-[(2,4-Dimethylphenyl)methyl]-1-ethyl-4-{[4-(hydroxyimino)cyclohexyl]amino}-1H-pyrazolo[3,4-b]pyridine-5-carboxamide] | –
0.1 to 6.31 | CCn1ncc2c(NC3CCC(=NO)CC3)c(C(=O)NCc3ccc(C)c(C)c3)cnc21 (centres unmarked) [Example 681, N-[(3,4-dimethylphenyl)methyl]-1-ethyl-4-{[4-(hydroxyimino)cyclohexyl]amino}-1H-pyrazolo[3,4-b]pyridine-5-carboxamide] | –
0.1 to 6.31 | CCn1ncc2c(NC3CCC(=NO)CC3)c(C(=O)NCc3cccc(Cl)c3Cl)cnc21 (centres unmarked) [Example 682, N-[(2,3-Dichlorophenyl)methyl]-1-ethyl-4-{[4-(hydroxyimino)cyclohexyl]amino}-1H-pyrazolo[3,4-b]pyridine-5-carboxamide] | –
0.1 to 6.31 | CCn1ncc2c(NC3CCC(=NO)CC3)c(C(=O)NCc3ccc(C)c(Cl)c3)cnc21 (centres unmarked) [Example 683, N-[(3-Chloro-4-methylphenyl)methyl]-1-ethyl-4-{[4-(hydroxyimino)cyclohexyl]amino}-1H-pyrazolo[3,4-b]pyridine-5-carboxamide] | –
0.1 to 6.31 | CCn1ncc2c(NC3CCC(=NO)CC3)c(C(=O)NCc3ccc(Cl)cc3C)cnc21 (centres unmarked) [Example 684, N-[(4-Chloro-2-methylphenyl)methyl]-1-ethyl-4-{[4-(hydroxyimino)cyclohexyl]amino}-1H-pyrazolo[3,4-b]pyridine-5-carboxamide] | –
0.1 to 6.31 | CCn1ncc2c(NC3CCC(=NO)CC3)c(C(=O)NCc3ccc(OC(F)F)cc3)cnc21 (centres unmarked) [Example 685, N-({4-[(Difluoromethyl)oxy]phenyl}methyl)-1-ethyl-4-{[4-(hydroxyimino)cyclohexyl]amino}-1H-pyrazolo[3,4-b]pyridine-5-carboxamide] | –
0.1 to 6.31 | CCn1ncc2c(NC3CCC(=NO)CC3)c(C(=O)NCc3ccc(C(F)(F)F)cc3)cnc21 (centres unmarked) [Example 686, 1-Ethyl-4-{[4-(hydroxyimino)cyclohexyl]amino}-N-{[4-(trifluoromethyl)phenyl]methyl}-1H-pyrazolo[3,4-b]pyridine-5-carboxamide] | –
– | O=C(Nc1c(Cl)cncc1Cl)c1ccc(OC(F)F)c(OCC2CC2)c1 [roflumilast] | Therapeutic index (TI), ferret Assay 4 ([3]; D20 emesis / D50 neutrophilia, ferret p.o.): 1.02; D20 for emesis ([3]; p.o., ferret, dose giving 20% incidence of emesis): 0.5 mg/kg; D50 for neutrophilia ([3]; p.o., ferret, dose giving 50% inhibition of LPS-induced pulmonary neutrophilia): 0.49 mg/kg
